According to patent US11629154B2, “Tetrahydropyranooxazine derivatives having selective BACE1 inhibitory activity” (SHIONOGI & CO., LTD., priority 2018, dated 2023):

Assays:
[1] = molecular target: recombinant BACE2 protein (Homo sapiens (Human), UniProt Q9Y5Z0); test: BACE2 biochemical FRET based assay; conditions: pH 5.0
Source text: (2) BACE2 Biochemical FRET Based Assay
(§1) This assay is a Fluorescence Resonance Energy Transfer Assay (FRET) based assay. The substrate for this assay contains the ‘Swedish’ Lys-Met/Asn-Leu mutation of the amyloid precursor protein (APP) beta-secretase cleavage site. This substrate also contains two fluorophores: (7-methoxycoumarin-4-yl) acetic acid (Mca) is a fluorescent donor with excitation wavelength at 320 nm and emission at 405 nm and 2,4-dinitrophenol (Dnp) is a proprietary quencher acceptor. […] Upon cleavage by the beta-secretase, the fluorophore Mca is separated from the quenching group Dnp, restoring the full fluorescence yield of the donor. The increase in fluorescence is linearly related to the rate of proteolysis.
Briefly in a 384-well format recombinant BACE2 protein in a final concentration of 0.4 μg/mL was incubated for 450 minutes at room temperature with 10 μM substrate in incubation buffer (final concentrations: 33.3 mM Citrate buffer pH 5.0, 0.033% PEG, 2% DMSO) in the absence or presence of compound. Next the amount of proteolysis was directly measured by fluorescence measurement at T=0 and T=450 (excitation at 320 nm and emission at 405 nm). Results were expressed in RFU (Relative Fluorescence Units), as difference between T450 and TO.
(§2) A best-fit curve was fitted by a minimum sum of squares method to the plot of % Controlmin versus compound concentration. From this an IC50 value (inhibitory concentration causing 50% inhibition of activity) can be obtained.
(§3) LC=Median of the low control values
(§4) =Low control: Reaction without enzyme
(§5) HC=Median of the High control values

[2] = molecular target: recombinant BACE1 protein (Homo sapiens (Human), UniProt P56817); test: BACE1 biochemical FRET based assay; conditions: for Selectivity: BACE1 versus BACE2; for IC50: FRET, pH 5.0
recombinant BACE1 protein, sequence (P56817 46-501): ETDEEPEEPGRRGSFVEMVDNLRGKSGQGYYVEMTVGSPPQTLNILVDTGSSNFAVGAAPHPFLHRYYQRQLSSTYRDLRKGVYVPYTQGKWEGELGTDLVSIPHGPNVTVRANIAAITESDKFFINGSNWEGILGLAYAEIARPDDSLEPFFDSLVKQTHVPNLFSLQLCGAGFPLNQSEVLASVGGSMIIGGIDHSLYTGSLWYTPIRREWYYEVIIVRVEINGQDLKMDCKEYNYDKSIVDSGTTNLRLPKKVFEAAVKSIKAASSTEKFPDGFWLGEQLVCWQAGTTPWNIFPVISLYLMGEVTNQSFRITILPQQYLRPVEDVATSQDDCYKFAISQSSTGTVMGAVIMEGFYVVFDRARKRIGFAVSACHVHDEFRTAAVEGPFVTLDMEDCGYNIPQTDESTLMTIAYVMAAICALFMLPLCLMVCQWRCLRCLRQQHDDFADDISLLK
Source text: (1) BACE1 Biochemical FRET Based Assay
as §1, with “this assay is an APP derived 13 amino acids peptide that contains the” for “this assay contains the”, “protein (APP) beta-site secretase cleavage site.” for “protein (APP) beta-secretase cleavage site.”, “cleavage by BACE1, the fluorophore” for “cleavage by the beta-secretase, the fluorophore”
Briefly in a 384-well format recombinant BACE1 protein in a final concentration of 0.04 μg/mL was incubated for 450 minutes at room temperature with […] substrate in incubation buffer (final concentrations: 33.3 mM Citrate buffer pH 5.0, 0.033% PEG, 3% DMSO) in the absence or presence of compound. Next the amount of proteolysis was directly measured by fluorescence measurement at T=0′-120′ and T=450′ (excitation at 320 nm and emission at 405 nm). Results were expressed in RFU (Relative Fluorescence Units), as difference between T450 and Tx (Tx is chosen depending on the reaction speed between 0 and 120 minutes).
as §2, §3, §4, §5
=High Control: Reaction with enzyme % Effect=100−[(sample−LC)/(HC−LC)*100] % Control=(sample/HC)*100 % Controlmin=(sample−LC)/(HC−LC)*100

recombinant BACE2 protein, sequence (Q9Y5Z0 63-518): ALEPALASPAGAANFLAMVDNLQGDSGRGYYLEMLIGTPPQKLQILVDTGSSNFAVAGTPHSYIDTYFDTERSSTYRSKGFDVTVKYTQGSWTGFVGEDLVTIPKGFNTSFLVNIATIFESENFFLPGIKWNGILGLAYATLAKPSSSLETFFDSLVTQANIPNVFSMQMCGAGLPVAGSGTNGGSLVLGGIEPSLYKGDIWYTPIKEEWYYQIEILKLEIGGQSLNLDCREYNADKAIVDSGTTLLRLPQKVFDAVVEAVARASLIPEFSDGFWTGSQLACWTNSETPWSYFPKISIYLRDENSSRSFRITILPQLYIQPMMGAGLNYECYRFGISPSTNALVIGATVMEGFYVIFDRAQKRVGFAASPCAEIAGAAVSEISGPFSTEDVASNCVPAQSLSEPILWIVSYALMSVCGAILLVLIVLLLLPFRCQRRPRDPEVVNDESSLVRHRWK

Structure (SMILES) | IC50 [1] [µM] | Selectivity [2] | IC50 [2] [µM]
C[C@@H]1C[C@H]2OC(N)=N[C@](CF)(c3cc(NC(=O)c4cnc(OCF)cn4)cc(F)c3F)[C@H]2CO1 [Compound I-061] | 0.933 | 53.7 | 0.0174
NC1=N[C@](CF)(c2cc(NC(=O)c3cnc(OCC(F)(F)F)cn3)ccc2F)[C@H]2COCC[C@H]2O1 [Compound I-077] | 1.82 | 223 | 0.0081
C[C@@H]1C[C@H]2OC(N)=N[C@](CF)(c3cc(NC(=O)c4cnc(C(F)F)cn4)ccc3F)[C@H]2CO1 [Compound I-088] | 0.617 | 11.2 | 0.055
NC1=N[C@](CF)(c2cc(NC(=O)c3cnc(OCF)cn3)ccc2F)[C@H]2COC3(CC3)C[C@H]2O1 [II-1] | 0.977 | 44.7 | 0.0219
CCOc1cnc(C(=O)Nc2ccc(F)c([C@@]3(CF)N=C(N)O[C@@H]4CCOC[C@@H]43)c2)cn1 [Compound I-109] | 0.417 | 18.6 | 0.0224
C[C@H]1COC[C@H]2[C@@H]1OC(N)=N[C@]2(CF)c1cc(NC(=O)c2cnc(OCF)cn2)ccc1F [Compound I-074] | 0.155 | 36.3 | 0.0043
NC1=N[C@](CF)(c2cc(NC(=O)c3cnc(C(F)(F)F)cn3)ccc2F)[C@H]2COCC[C@H]2O1 [Compound I-102] | 0.977 | 28.8 | 0.0339
Cc1cc(C(F)(F)F)cnc1C(=O)Nc1ccc(F)c([C@@]2(CF)N=C(N)O[C@@H]3C[C@@H](C)OC[C@@H]32)c1 [Compound I-100] | 0.257 | 15.5 | 0.0166
NC1=N[C@](CF)(c2cc(NC(=O)c3ncc(C(F)(F)F)cc3Cl)ccc2F)[C@H]2COCC[C@H]2O1 [Compound I-108] | 0.2 | 10.0 | 0.02
C[C@@H]1C[C@H]2OC(N)=N[C@](CF)(c3cc(NC(=O)c4cnc(OC(F)F)cn4)ccc3F)[C@H]2CO1 [Compound I-089] | 0.55 | 56.2 | 0.0098
CC[C@@H]1OCC[C@H]2OC(N)=N[C@](CF)(c3cc(NC(=O)c4cnc(OC(F)F)cn4)ccc3F)[C@@H]12 [Compound I-094] | 0.417 | 70.8 | 0.0059
C[C@@H]1C[C@H]2OC(N)=N[C@](CF)(c3cc(NC(=O)c4ncc(C(F)(F)F)cc4Cl)ccc3F)[C@H]2CO1 [Compound I-101] | 0.398 | 14.1 | 0.0282
C[C@@H]1OCC[C@H]2OC(N)=N[C@](CF)(c3cc(NC(=O)c4cnc(OCF)cn4)ccc3F)[C@@H]12 [Compound I-011] | 0.417 | 31.6 | 0.0132
Cc1cc(C(F)(F)F)cnc1C(=O)Nc1ccc(F)c([C@@]2(CF)N=C(N)O[C@@H]3CCOC[C@@H]32)c1 [Compound I-106] | 0.148 | 10.2 | 0.0142
NC1=N[C@](CF)(c2cc(NC(=O)c3cnc(OCC(F)F)cn3)ccc2F)[C@H]2COCC[C@H]2O1 [Compound I-079] | 1 | 52.7 | 0.0186
C[C@@H]1COC[C@H]2[C@@H]1OC(N)=N[C@]2(CF)c1cc(NC(=O)c2cnc(OCF)cn2)ccc1F [Compound I-075] | 0.724 | 27.5 | 0.026
NC1=N[C@](CF)(c2cc(NC(=O)c3cnc(C(F)(F)F)cn3)ccc2F)[C@H]2COCC[C@H]2O1 [Compound I-107] | 3.39 | 63.1 | 0.0537
NC1=N[C@](CF)(c2cc(NC(=O)c3cnc(OCF)cn3)ccc2F)[C@H]2[C@H](CF)OCC[C@H]2O1 [Compound I-010] | 0.457 | 42.7 | 0.0107
COc1cnc(C(=O)Nc2ccc(F)c([C@@]3(CF)N=C(N)O[C@@H]4C[C@@H](C)OC[C@@H]43)c2)cn1 [Compound I-069] | 1.45 | 123 | 0.0117
COc1cnc(C(=O)Nc2ccc(Cl)c([C@@]3(CF)N=C(N)O[C@@H]4C[C@@H](C)OC[C@@H]43)c2)cn1 [Compound I-068] | 0.275 | 24.5 | 0.0112
NC1=N[C@](CF)(c2cc(NC(=O)c3ccc(OC(F)F)cn3)ccc2F)[C@H]2COCC[C@H]2O1 [Compound I-078] | 0.245 | 25.1 | 0.0098
NC1=N[C@](CF)(c2cc(NC(=O)c3cnc(OCC4(F)CC4)cn3)ccc2F)[C@H]2COCC[C@H]2O1 [Compound I-086] | 0.537 | 53.7 | 0.01
[2H]C([2H])([2H])Oc1cnc(C(=O)Nc2ccc(F)c([C@@]3(CF)N=C(N)O[C@@H]4CCOC[C@@H]43)c2)cn1 [Compound I-104] | 0.398 | 27.5 | 0.0145
NC1=N[C@](CF)(c2cc(NC(=O)c3cnc(C(F)F)cn3)ccc2F)[C@H]2COCC[C@H]2O1 [Compound I-103] | 0.316 | 14.5 | 0.0219
C[C@@H]1C[C@H]2OC(N)=N[C@](CF)(c3cc(NC(=O)c4ccc(C(F)(F)F)cn4)ccc3F)[C@H]2CO1 [Compound I-099] | 0.55 | 28.8 | 0.0191
CC[C@@H]1OCC[C@H]2OC(N)=N[C@](CF)(c3cc(NC(=O)c4cnc(OCF)cn4)ccc3F)[C@@H]12 [Compound I-009] | 0.692 | 44.7 | 0.0155
